In patent US5204343A, “5H-benzodiazepin derivative” (Egis Gyogyszergyar, priority 1990, dated 1993):
“Also recorded” adds a separate entry of the source.

What was measured:
mice [1] = assay: Behaviour test on mice (method of Irwin); format: in vivo
Text: The effects of the compound of formula (I) and the reference compound (girisopam) were examined by the method of Irwin [Psychopharmacol. 13, 222 (1968)].

mice [2] = assay: Narcosis potentiating effect on mice (hexobarbital-Na); format: in vivo; conditions: for Prolongation of narcosis time: hexobarbital-Na 50 mg/kg i.v.
Procedure: The prolongation of the narcosis time was related to the sleeping time of the control group treated with a 50 mg/kg i.v. dose of hexobarbital-Na. The test compound was administered […].

mice [3] = assay: Antiaggressive effect on mice ("fighting behaviour" test of Tedeschi et al.); format: in vivo; conditions: Mus musculus, confidence limit in separate column
Text: The antiaggressive effect was examined by the method of Tedeschi et al. (the so-called "fighting behaviour" test) [J. Pharm. Exp. Ther. 25, 28 (1959)].

rats = assay: Anxiolytic effect on rats ("lick-conflict" test of Vogel); format: in vivo; conditions: for Numbers of shocks tolerated: 50 mg/kg i.p., pretreatment 30 minutes, vehicle 5.7 ± 0.6 (formula (I) series), 5.1 ± 0.9 (girisopam series); for number of tolerated shocks, result in words: same dose (50 mg/kg i.p.)
Procedure: The anxiolytic effect was investigated according to the so-called "lick-conflict" test of Vogel [Psychopharmacol. 21, 1 (1971)]. Time of pretreatment: 30 minutes.

Acute toxicity, mouse = assay: Acute toxicity, mouse; set-up: species or system mouse (male, CFLP strain); conditions: in vivo, 14 days observation
Procedure: (§1) The experiments were carried out on male mice belonging to the CFLP strain (body weight: 20-22 g) and on male rats belonging to the CFY strain. […] The LD50 values were determined with the aid of the method of Lichtfield and Wilcoxon [J. Pharmacol. Exp. Ther. 96, 99 (1949)]. The compounds were suspended in 2 to 5% Tween 80. The animals were treated in volumes of 0.1 ml/10 g (mice) and 0.5 ml/100 g (rats).

Acute toxicity, rat = assay: Acute toxicity, rat; set-up: species or system rat (male, CFY strain); conditions: in vivo, ip, 14 days observation
Procedure: as §1

[4] = Acute toxicity, overall statement; format: in vivo; conditions: vs girisopam
Procedure: as §1

[5] = Anxiolytic, antiaggressive and antidepressant effects, overall statement; format: in vivo; conditions: vs girisopam
[6] = Muscle relaxant and anticonvulsive effects; conditions: in vivo
[7] = Pharmacological experiments, overall (spectrum, potency, therapeutical index); format: in vivo; conditions: vs girisopam
[8] = vs Grandaxin (tofisopam); cited from earlier work

SMILES | spontaneous motor activity (SMA) after 60 minutes (mice [1]; 100 mg/kg i.p.) | spontaneous motor activity (SMA) after 120 minutes (mice [1]; 100 mg/kg i.p.) | spontaneous motor activity (SMA) after 180 minutes (mice [1]; 100 mg/kg i.p.) | spontaneous motor activity (SMA) after 60 minutes (mice [1]; 200 mg/kg p.o.) | spontaneous motor activity (SMA) after 120 minutes (mice [1]; 200 mg/kg p.o.) | spontaneous motor activity (SMA) after 180 minutes (mice [1]; 200 mg/kg p.o.) | Prolongation of narcosis time (mice [2]; 25 mg/kg p.o.) | Prolongation of narcosis time (mice [2]; 50 mg/kg p.o.) | ED50 (mice [3]) | Numbers of shocks tolerated (rats) | number of tolerated shocks, result in words (rats) | LD50 at 336 h (Acute toxicity, mouse; ip) | LD50 at 336 h (Acute toxicity, mouse; po) | LD50 at 336 h (Acute toxicity, rat) | other results
COc1cc2c(cc1OC)C(c1cccc(Cl)c1)=NN=C(CO)C2 [Compound of formula (I), 1-(3-chlorophenyl)-4-hydroxymethyl-7,8-dimethoxy-5H-2,3-benzodiazepine] | SMA.dwnarw. | SMA.dwnarw. | SMA.dwnarw. | SMA.dwnarw. | SMA.dwnarw. | SMA.dwnarw. | 232% | 444% | 13.8 mg/kg | 13.8 ± 3.7 | significant increase on the number of tolerated shocks | 1310 mg/kg | > 2000 mg/kg | > 1500 mg/kg | decrease of spontaneous motor activity, compared with reference compound (mice [1]; mice, vs girisopam): decreases the spontaneous motor activity on mice to the same degree as the reference compound; Prolongation of narcosis time (mice [2]; 12.5 mg/kg p.o.): 145%; narcosis potentiating activity compared with reference compound (mice [2]; p.o. doses 25 mg/kg and 50 mg/kg, vs girisopam): practically as significant as that of the reference compound (girisopam) or even superior; acute toxicity compared with reference compound [4]: considerably more favourable on both kinds of animals than that of the reference compound; also recorded: their acute toxicity is superior; anxiolytic, antiaggressive and antidepressant effects [5]: as strong anxiolytic, antiaggressive and antidepressant effects as girisopam; muscle relaxant and anticonvulsive effects [6]: do not show muscle relaxant and anticonvulsive effects; spectrum of activity and potency [7]: as favourable as those of the reference compound (girisopam); therapeutical index compared with reference compound [7]: more favourable than the reference compound
COc1cc2c(cc1OC)C(c1cccc(Cl)c1)=NN=C(C)C2 [Girisopam, 1-(3-chlorophenyl)-4-methyl-7,8-dimethoxy-5H-2,3-benzodiazepine, reference compound] | SMA.dwnarw. | SMA.dwnarw. | SMA.dwnarw. | SMA.dwnarw. | SMA.dwnarw. | SMA.dwnarw. | 305% | 392% | 16 mg/kg | 19.0 ± 2.3 | significant increase on the number of tolerated shocks | 330 mg/kg | 1250 mg/kg | 670 mg/kg | effectiveness compared with Grandaxin [8]: five times more effective than the latter
